Reference: patent US20140227208A1, “COSMETIC COMPOSITIONS CONTAINING SUBSTITUTED AZOLE AND METHODS FOR ALLEVIATING MECHANICALLY-INDUCED SKIN INFLAMMATION” (The Procter & Gamble Company, priority 2013, published 2014)
Read-outs that look alike come from different tables or passages of the source.

Tests used:
CYP3A4 = CYP3A4 (Homo sapiens, UniProt P08684); assay: In vitro CYP/CYP3A4 inhibition assay (P450-GLO Assay kit, Promega)
Text: The metabolism of retinoic acid and vitamin D in the skin is incompletely understood, but there is evidence for the involvement of CYP26A1, CYP3A4 and CYP2C8 in catalyzing the 4-hydroxylation of all-trans RA to 4-hydroxy-RA. It is believed, without being limited by theory, that CYP3A4 may be particularly important for ATRA metabolism in the skin. This is because CYP3A4 is expressed in skin, involved in RA metabolism, a CYP with one of the broadest substrate specificities of all of the known CYPs and available as a human recombinant protein in a commercial kit. Thus, a commercially available CYP3A4 assay was used as a surrogate to predict RAMBA potential in the skin.
The commercially available P450-GLO™ Assay kit (Promega Corporation, Madison Wis.) was used to screen various compounds for potential CYP activity, specifically CYP3A4A inhibition activity. CYP3A4A is thought to be among the primary CYP isoforms responsible for retinoic acid metabolism in the skin.
The commercially available P450-GLO™ Assay kit (Promega Corporation, Madison Wis.) was used to screen various compounds for potential CYP activity, specifically CYP3A4A inhibition activity. CYP3A4A is thought to be one of the primary CYP isoforms responsible for retinoic acid metabolism in the skin.

[1] = tested on: ATRA 4-hydroxylase activity (CYP) of pig liver microsomes; assay: In vitro ATRA 4-hydroxylase (CYP) inhibition assay using pig liver microsomes; conditions: for IC50: 90 min
Text: Cytochrome P450 is a large and diverse group of enzymes that catalyze the oxidation of organic substances. […] Applicant evaluated the potential RAMBA activity of several azoles using pig liver microsomes, a rich source of CYP activity, comprising many different CYP 450 isoforms. […] As understanding in this area has progressed, a more specific CYP inhibition assay can be used to provide better predictivity of activity in human skin. Nevertheless, this assay may still be used as a general predictor of overall CYP activity.
Microsomal preparation: One lobe of fresh pig liver was obtained at the time of slaughter from a food-processing company and immediately placed in ice cold 15 mM KH2PO4/250 mM sucrose (pH 7.4) and kept on ice during transportation. A 10 g sample of liver was minced and homogenized in 30 mls of homogenization buffer (15 mM KH2PO4/250 mM sucrose) using a Tekmar homoginizer by pulsing 3 times 20 second pulses. […] The remaining pig liver was cut into 10-g pieces and wrapped in aluminum foil and stored at −80° C. The homogenates from the 8 samples were pooled and centrifuged at 13,000×g for 20 minutes at 4° C. to remove crude debris and the supernatant was further centrifuged at 100,000×g for 70 minutes at 4° C. The microsomal pellets were resuspended into 50 mls of 150 mM KH2PO4/1 mM DTT (pH 7.4) and 1 mL aliquots were stored at −80° C. In vitro 4-hydroxylase activity assay: All procedures were carried out under minimal light in order to prevent degradation of the retinoid samples. The ATRA 4-hydroxylase assay can be described briefly as follows: 100-150 μg of pig liver microsomal protein in 150 mM KH2PO4 was incubated at 37° C. in the presence of radiolabeled ATRA and 5 mM NADPH for 90 min. The final ATRA concentration was 1 μM, as a combination of [20-Methyl-^3H]ATRA and unlabeled ATRA. Initially radiolabeled ATRA was used to assist in validating the method. Once retention times of retinoid metabolites were identified unlabeled ATRA was used for screening. Compounds tested as possible competitive substrates were added to the assay 10 min prior to the addition of ATRA. Ethanol, containing 0.1% butylated hydroxytoluene (BHT) as an antioxidant, was used to stop the reactions. For recovery of ATRA the pH of reactions were adjusted to 3.0 before extraction with 0.1N HCl. Retinoids were extracted from the protein aqueous phase with 4 mls hexane, 1 ml 100 μg/ml BHT in water (pH 3). An additional 4 mls of hexane (pH 3) was used for a second extraction. The organic extractions were pooled, evaporated to dryness using a speed vac, and resuspended in 62.5 μl acetonitrile containing 1 mg/ml BHT. Samples were analyzed by HPLC. […] Mobile phases used for gradient elution of retinoids were those of Duell et al., J. Clin. Invest. […] Mobile phase A was acetonitrile:0.02 M ammonium acetate:acetic acid (1:1:0.01) and mobile phase B was acetonitrile:0.2M ammonium acetate;acetic acid (19:1:0.008). […] Because of the sensitivity limitations of the β-RAM spectrometer, it was not used to quantitate peak areas but rather to confirm ATRA and ATRA 4-hydroxylase activity. Calculated peaks areas (using Millenium software—Waters Corp.) of ATRA and ATRA metabolites were used to quantify relative activity levels.

[2] = tested on: mechanically-induced skin inflammation (shaving); assay: Method of treatment: shaving cream and leave-on skin cream applied to facial and neck regions; assay type: in vivo, human; conditions: 0.55% by weight in shaving cream before and leave-on cream after shaving, topical, 8 weeks
Text: A test subject topically applies a shaving cream composition comprising 0.55% 1-phenylimidazole, by weight in a vehicle, to the facial and neck regions prior to shaving. A leave-on skin cream comprising 0.55% 1-phenylimidazole, by weight in a vehicle, is applied to the same facial and neck regions after shaving.

[3] = P450-GLO Assay kit, human recombinant CYP3A4
[4] = IC50 (uM), CYP3A4 inhibition, P450-GLO Assay kit, human recombinant CYP3A4
[5] = read-out: IC50 (uM), CYP3A4 inhibition, P450-GLO Assay kit, human recombinant CYP3A4
[6] = read-out: IC50 (μM), in vitro 4-hydroxylase inhibition assay, pig liver microsomes, 1 μM ATRA, 5 mM NADPH, 37° C.

Chain of CYP3A4 (P08684 whole entry): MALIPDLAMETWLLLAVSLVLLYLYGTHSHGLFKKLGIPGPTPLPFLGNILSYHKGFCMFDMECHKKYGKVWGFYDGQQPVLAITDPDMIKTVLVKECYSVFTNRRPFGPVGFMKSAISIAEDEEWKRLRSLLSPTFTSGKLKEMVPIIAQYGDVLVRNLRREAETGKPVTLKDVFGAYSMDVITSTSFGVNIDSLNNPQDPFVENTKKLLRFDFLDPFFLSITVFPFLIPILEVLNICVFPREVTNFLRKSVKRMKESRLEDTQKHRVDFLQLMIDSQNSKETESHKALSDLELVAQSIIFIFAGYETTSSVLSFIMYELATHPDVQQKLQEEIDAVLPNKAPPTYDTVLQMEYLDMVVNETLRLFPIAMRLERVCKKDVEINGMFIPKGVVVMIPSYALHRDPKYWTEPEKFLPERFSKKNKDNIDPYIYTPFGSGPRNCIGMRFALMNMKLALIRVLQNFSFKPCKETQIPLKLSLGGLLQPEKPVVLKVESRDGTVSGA

With `CCc1cccc(C)c1N(C(=O)CCl)C(C)COC` (centres unmarked) [Metolachlor] the IC50 (CYP3A4) was > 10 µM and the “Hit / no hit for inhibition of CYP3A4” value (CYP3A4; [3]) was “no hit (weak/no inhibition (IC50 value>10 μM))”.
For `CC(=O)/C=C/C1=C(C)CCCC1(C)C` [β-Ionone], the IC50 (CYP3A4; [4]) was > 10 µM.
With `CC(=O)c1ccc(-n2ccnc2)cc1` [4′-(Imidazol-1yl) acetophenome] the IC50 (CYP3A4; [4]) was 0.8 µM and the “Hit / no hit for inhibition of CYP3A4” value (CYP3A4; human, recombinant enzyme) was “Hit”.
With `Clc1ccc(COC(Cn2ccnc2)c2ccc(Cl)cc2Cl)c(Cl)c1` (centres unmarked) [Miconazole] the “Hit / no hit for inhibition of CYP3A4” value (CYP3A4; human, recombinant enzyme) was “Hit 5 uM”.
Work on `c1ccc(-c2nc[nH]c2-c2ccccc2)cc1` [4,5-diphenylimidazole] yielded an IC50 ([1]; pig) of 100 µM.
For `Clc1ccccc1-c1nc2ccccc2[nH]1` [2-(2-Chlorophenyl) benzimidazole], the IC50 (CYP3A4; [4]) was > 10 µM.
`CCc1nc(C)c[nH]1` [2-Ethyl-4-methylimidazole] was tested, and the IC50 (CYP3A4; [4]) was > 10 µM.
In the case of `O=C(n1ccnc1)n1ccnc1` [1′-1-Carbonylimidazole], the IC50 (CYP3A4; [4]) is reported as > 10 µM.
For `Cc1nccn1Cc1ccccc1` [1-benzyl-2-methylimidazole], the IC50 ([1]; pig) was 308 µM.
With `Cc1ccc2cc3c(ccc4ccccc43)c3c2c1CC3` [Methylcholanthrene] the “Hit / no hit for inhibition of CYP3A4” value (CYP3A4; [3]) was “Near Hit”.
In the case of `c1coc(-c2nc3ccccc3[nH]2)c1` [Fuberidazole], the IC50 (CYP3A4) is reported as > 10 µM and the “Hit / no hit for inhibition of CYP3A4” value (CYP3A4; human, recombinant enzyme) is reported as “no hit >10 uM (key: hit: strong inhibition (IC50 value<10 μM); no hit: weak/no inhibition (IC50 value>10 μM))”.
With Glutamylamidoethyl imidazole the “Hit / no hit for inhibition of CYP3A4” value (CYP3A4; [3]) was “no hit (weak/no inhibition (IC50 value>10 μM))” and the IC50 (CYP3A4; [5]) was > 10 µM.
Benomyl was tested, and the “Hit / no hit for inhibition of CYP3A4” value (CYP3A4; [3]) was “no hit (weak/no inhibition (IC50 value>10 μM))” and the IC50 (CYP3A4; [5]) was > 10 µM.
For `N=C(N)c1ccc(OCCCCCCOc2ccc(C(=N)N)cc2)cc1` [Hexamidine diisethionate], the IC50 (CYP3A4; [4]) was > 10 µM.
For `c1ccc(-n2ccnc2)cc1` [1-phenylimidazole], the “inhibitory activity in the CYP3A4 assay (in words)” value (CYP3A4; P450-GLO Assay kit) was “showed inhibitory activity”, the “Hit / no hit for inhibition of CYP3A4” value (CYP3A4; [3]) was “Hit” and the IC50 (CYP3A4; human, recombinant enzyme) was 1 µM. The “facial and neck skin inflammation noted by the subject” value [2] was “significantly less inflamed”, the “CYP inhibitory activity (in words), 4-hydroxylase assay” value (“CYP inhibitory activity (in words)” below) ([1]; pig liver microsomes) was “IC50 values in the same range as climbazole” and the IC50 [1, 6] was 52.5 µM.
In the case of `CCc1ncc[nH]1` [2-Ethylimidazole], the IC50 (CYP3A4) is reported as > 10 µM.
In the case of `CC(=O)n1ccnc1` [1-Acetylimidazole], the IC50 (CYP3A4; [4]) is reported as > 10 µM.
`CC1=N[C@H](C(=O)O)CCN1` [Ectoine] was tested, and the IC50 (CYP3A4; [4]) was > 10 µM.
With `N[C@@H](Cc1c[nH]cn1)C(=O)O` [Histidine] the IC50 (CYP3A4; [4]) was > 10 µM.
In the case of `CC(C)(C(=O)c1cccnc1)c1cccnc1` [Metyrapone], the IC50 (CYP3A4) is reported as 3 µM and the “Hit / no hit for inhibition of CYP3A4” value (CYP3A4; human, recombinant enzyme) is reported as “Hit”.
For `Clc1ncnc2[nH]cnc12` [6-Chloropurine], the IC50 (CYP3A4; [4]) was > 10 µM.
`Nc1nc[nH]n1` [Amitrol] was tested, and the IC50 (CYP3A4) was > 10 µM.
Piperine was tested, and the “Hit / no hit for inhibition of CYP3A4” value (CYP3A4; [3]) was “Hit” and the IC50 (CYP3A4; [5]) was ~10 µM.
For `c1ccc2[nH]cnc2c1` [Benzimidazole], the IC50 (CYP3A4; [4]) was > 10 µM.
In the case of `C=Cn1ccnc1` [1-Vinylimidazole], the IC50 (CYP3A4; [4]) is reported as > 10 µM.
In the case of `c1ccc(-c2n[nH]cc2-c2ccnc3ccccc23)nc1` [LY-364947], the IC50 (CYP3A4) is reported as > 10 µM.
For `Cc1ncc[nH]1` [2-Methylimidazole], the IC50 (CYP3A4; [4]) was > 10 µM.
`c1ccc(-c2ncc[nH]2)cc1` [2-phenylimidazole] was tested, and the IC50 (CYP3A4) was > 10 µM, the “inhibitory activity in the CYP3A4 assay (in words)” value (CYP3A4) was “did not” and the “CYP inhibitory activity (in words)” value ([1]; pig liver microsomes) was “lacked any significant inhibitory activity”. The IC50 [1, 6] was > 500 µM.
`NCCCn1ccnc1` [N-(3-Aminopropyl) imidazole] was tested, and the IC50 (CYP3A4) was > 10 µM.
In the case of `c1ccc(-c2c[nH]cn2)cc1` [4-phenylimidazole], the “CYP inhibitory activity (in words)” value ([1]; pig liver microsomes) is reported as “IC50 values in the same range as climbazole”.
`Cn1ccnc1` [1-Methylimidazole] was tested, and the IC50 (CYP3A4) was > 10 µM.
In the case of `Cc1cccc(C)c1N(Cn1cccn1)C(=O)CCl` [Metazachlor], the IC50 (CYP3A4) is reported as > 10 µM and the “Hit / no hit for inhibition of CYP3A4” value (CYP3A4; human, recombinant enzyme) is reported as “no hit >10UM (key: hit: strong inhibition (IC50 value<10 μM); no hit: weak/no inhibition (IC50 value>10 μM))”.
`CCCCc1nc(C=O)c(Cl)[nH]1` [2-Butyl-4-chloro-5-formylimidazole] was tested, and the IC50 (CYP3A4) was > 10 µM.
In the case of `c1ccc(Cn2ccnc2)cc1` [1-benzylimidazole], the IC50 [1, 6] is reported as 77.5 µM.
